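Following 48 hours of exposure in 96-well plates, responses at five concentrations were used to interpolate endpoints linearly. GI50: concentration for 50% inhibition of growth.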 Calls of active or inactive are those of the source. No stated cut-off is given here; in the data, active = GI50 up to about 1.1 µM and inactive = higher.
Key:
Experiment in all cases: DTP human tumour cell line panel, 48 h
CCRF-CEM = test system: CCRF-CEM
ACHN = test system: ACHN
BT-549 = test system: BT-549
NCI/ADR-RES = test system: NCI/ADR-RES
SW-620 = test system: SW-620
DU-145 = test system: DU-145
OVCAR-4 = test system: OVCAR-4
OVCAR-5 = test system: OVCAR-5
HCT-116 = test system: HCT-116
PC-3 = test system: PC-3
LOX IMVI = test system: LOX IMVI
HL-60 = test system: HL-60
SK-MEL-5 = test system: SK-MEL-5
Malme-3M = test system: Malme-3M
TK-10 = test system: TK-10
OVCAR-8 = test system: OVCAR-8
MOLT-4 = test system: MOLT-4
NCI-H226 = test system: NCI-H226
A498 = test system: A498

Measured: GI50

Nc1n[n+]([O-])c2cnccc2[n+]1[O-]
inactive: CCRF-CEM 8.28 µM | ACHN 50.9 µM | BT-549 45.2 µM | NCI/ADR-RES 78 µM | SW-620 38.4 µM | DU-145 > 100 µM | OVCAR-4 56.2 µM | OVCAR-5 52 µM | HCT-116 32.4 µM | PC-3 36.1 µM | LOX IMVI 52.2 µM | HL-60 13.6 µM | SK-MEL-5 16.4 µM | Malme-3M > 10 µM | TK-10 > 100 µM | OVCAR-8 31.3 µM | MOLT-4 51.8 µM | NCI-H226 > 100 µM

CCOC(=O)c1nnc2c(C#N)c(-c3ccccc3)c(C)n2c1N
inactive: CCRF-CEM 39.7 µM | ACHN 29.9 µM | BT-549 40.4 µM | NCI/ADR-RES 38.8 µM | SW-620 40.6 µM | DU-145 83.9 µM | OVCAR-4 10.9 µM | OVCAR-5 > 100 µM | HCT-116 42.2 µM | PC-3 82.4 µM | LOX IMVI 34.7 µM | A498 26.8 µM | SK-MEL-5 39.9 µM | Malme-3M 20.7 µM | TK-10 37 µM | OVCAR-8 28.4 µM | MOLT-4 30.5 µM

O=C(Cn1nnc(-c2ccccc2)n1)N/N=C/c1cn(Cc2ccc(Cl)cc2Cl)c2ccccc12
inactive: CCRF-CEM 44.1 µM | ACHN > 100 µM | BT-549 > 100 µM | NCI/ADR-RES > 100 µM | SW-620 58.3 µM | DU-145 > 100 µM | OVCAR-4 > 100 µM | OVCAR-5 > 100 µM | HCT-116 > 100 µM | PC-3 > 100 µM | LOX IMVI > 100 µM | HL-60 39.6 µM | A498 75.5 µM | SK-MEL-5 > 100 µM | TK-10 > 100 µM | OVCAR-8 > 100 µM | MOLT-4 > 100 µM

CC(CN(C)C)C(=O)c1ccccc1C(=O)O (stereo not given)
inactive: CCRF-CEM 10.1 µM | ACHN 35.6 µM | BT-549 9.59 µM | NCI/ADR-RES 29.1 µM | SW-620 29.3 µM | DU-145 30.2 µM | OVCAR-4 35.5 µM | OVCAR-5 52.4 µM | HCT-116 32.1 µM | PC-3 23.9 µM | LOX IMVI 33.4 µM | HL-60 22.7 µM | A498 40.8 µM | SK-MEL-5 28.5 µM | Malme-3M 22 µM | TK-10 19.5 µM | OVCAR-8 30.3 µM | MOLT-4 20.4 µM
